Test results taken from patent US10011615B2, “Heterobicyclo-substituted [1,2,4]triazolo[1,5-c]quinazolin-5-amine compounds with A2A anatagonist properties” (Merck Sharp & Dohme Corp., priority 2012, dated 2018).
Where “and” joins values, the source holds several entries; their conditions need not be identical. Equal entries are not always repeated.

The compounds below were run against T1, human A2a receptor (Homo sapiens, UniProt P29274) (assay: A2a receptor competition binding assay using Scintillation Proximity technology). Settings: membranes from HEK293 cells expressing human A2a receptor; 0.5 nM tritiated radioligand; SPA beads; 1 h room temperature.
T1 construct: purchased Perkin-Elmer RBHA2AM400UA; host or cells: HEK293 cell membranes
T1 sequence (P29274 whole entry): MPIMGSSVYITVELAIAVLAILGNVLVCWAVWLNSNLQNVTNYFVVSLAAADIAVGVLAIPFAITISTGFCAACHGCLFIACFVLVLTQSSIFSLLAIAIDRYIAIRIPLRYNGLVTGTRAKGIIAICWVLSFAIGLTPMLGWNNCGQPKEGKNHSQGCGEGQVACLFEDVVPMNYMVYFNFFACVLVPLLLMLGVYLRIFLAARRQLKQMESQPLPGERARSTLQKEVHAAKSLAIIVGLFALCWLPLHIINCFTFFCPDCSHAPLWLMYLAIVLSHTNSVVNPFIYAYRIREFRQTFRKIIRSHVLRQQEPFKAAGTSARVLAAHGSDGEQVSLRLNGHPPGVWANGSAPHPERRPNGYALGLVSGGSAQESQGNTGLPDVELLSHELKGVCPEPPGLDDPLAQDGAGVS
Method: Binding affinities of compounds of the invention for the human A2a receptor were determined in a competition binding assay using Scintillation Proximity technology. Thus, 0.3 μg of membranes from HEK293 cells expressing the human A2a receptor were incubated with a compound of the invention at concentrations ranging from 3000 nM to 0.15 nM in a reaction mixture containing also 0.5 nM of a tritiated form of 5-amino-7-[2-phenethyl]-2-(furan-2-yl)-7H-pyrazolo[4,3-e][1,2,4]triazolo[1,5-c]pyrimidine (the tritiated compound) and 100 μg of wheat germ agglutin-coated yttrium silicate SPA beads for one hour at room temperature with agitation. The beads were then allowed to settle to the bottom of the wells for 1 hr, after which the membrane-associated radioactivity was determined by scintillation counting in a TopCount microplate reader. Ki values were determined using the Cheng-Prusoff equation.
Summary of Materials and Methods Used in A2a Activity Determination:
HEK293 cells expressing the human, rat, dog or monkey adenosine 2a receptor (Purchased from Perkin-Elmer # RBHA2AM400UA).
The Tritiated compound was prepared in-house by MRL Radiochemistry according to published methods.
Wheat germ agglutinin-coated yttrium silicate SPA beads (GE Healthcare#RPNQ0023). Dilute to 25 mg/ml in assay buffer.
Assay Buffer was prepared in house: Dulbecco's calcium and magnesium free phosphate buffered saline+10 mM MgCl2
Adenosine deaminase from calf intestine, 10 mg/2 ml (Roche) 10 102 105 001).
A2a antagonist standard (9-chloro-1-(2-furanyl)-[1,2,4]triazolo1,5-c]quinazolin-5-amine from Tocris Bioscience)
Make eight 1:3 serial dilutions in 100% DMSO from a 3 mM compound stock
Transfer 50 nl of compound into a 384-well OptiPlate (Perkin Elmer).
Typically, final concentrations of compound used in the assay ranged from 3000 nM to 0.152 nM.
Dilute a solution of the Tritiated compound to 1.25 nM in assay buffer. This is a 2.5× solution. The final concentration in the assay is 0.5 nM. Calculate the concentration by counting two 5 μl aliquots.
Use 0.25 ug of membrane/well. Dilute membranes to 9.7 μg/ml in assay buffer. Treat with 20 ug/ml adenosine deaminase (ADA) for 15 minutes at room temperature to degrade endogenous adenosine.
Use 100 μg/well wheat germ agglutinin-coated yttrium silicate SPA beads.
Mix ADA-treated membranes and SPA beads together for 30 min prior to assay.
To the Perkin-Elmer Optiplate-384 containing the compound titration add 20 μl of 2.5× solution of the Tritiated compound and 30 μl of the membrane-bead mixture. Incubate for one hour at room temperature with agitation.
Include total binding (assay buffer+1% DMSO) and non-specific binding (CGS15943, 1 μM) wells.
Allow the beads to settle for one hour.
A curve fitting program (i.e., Prism, Activity Base, Chemcart) is used to determine the EC50. The Ki value is calculated using the Cheng-Prusoff equation: K i=EC50/(1+(radioligand concentration/Kd)).

| EC50 | Compound |
| --- | --- |
| 2.9 nM | COc1cccc2c1nc(N)n1nc(CCN3CCn4c(nnc4C(=O)NC(C)(C)C)C3)nc21 [Ex-2, 7-(2-(5-amino-7-methoxy-[1,2,4]triazolo[1,5-c]quinazolin-2-yl)ethyl)-N-tert-butyl-5,6,7,8-tetrahydro-[1,2,4]triazolo[4,3-a]pyrazine-3-carboxamide] |
| 4.6 nM | CCOC(=O)c1nnc2n1CCN(CCc1nc3c4cccc(OC)c4nc(N)n3n1)C2 [Ex-4, ethyl 7-(2-(5-amino-7-methoxy-[1,2,4]triazolo[1,5-c]quinazolin-2-yl)ethyl)-5,6,7,8-tetrahydro-[1,2,4]triazolo[4,3-a]pyrazine-3-carboxylate] |
| 5.9 nM | COc1cccc2c1nc(N)n1nc(CCN3CCc4c(Br)ccnc4C3)nc21 [Ex-6, 2-(2-(4-bromo-5,6-dihydro-1,7-naplithyridin-7(8H)-yl)ethyl)-7-methoxy-[1,2,4]triazolo[1,5-c]quinazolin-5-amine] |
| 2.2 nM | COc1cccc2c1nc(N)n1nc(CCN3CCn4c(cnc4C(C)C)C3)nc21 [Ex-8, 2-(2-(3-isopropyl-5,6-dihydroimidazo[1,5-a]pyrazin-7(8H)-yl)ethyl)-7-methoxy-[1,2,4]triazolo[1,5-c]quinazolin-5-amine] |
| 2.1 nM | COc1cccc2c1nc(N)n1nc(CCN3CCc4noc(C(F)(F)F)c4C3)nc21 [Ex-9, 7-methoxy-2-(2-(3-(trifluoromethyl)-6,7-dihydroisoxazolo[4,3-c]pyridin-5(4H)-yl)ethyl)-[1,2,4]triazolo[1,5-c]quinazolin-5-amine] |
| 2 nM | COc1cccc2c1nc(N)n1nc(CCN3CCn4nc(C5CC5)nc4C3)nc21 [Ex-12, 2-(2-(2-cyclopropyl-5,6-dihydro-[1,2,4]triazolo[1,5-a]pyrazin-7(8H)-yl)ethyl)-7-methoxy-[1,2,4]triazolo[1,5-c]quinazolin-5-amine] |
| 2.2 nM | CCc1ncc2n1CCN(CCc1nc3c4cccc(OC)c4nc(N)n3n1)C2 [Ex-13, 2-(2-(3-ethyl-5,6-dihydroimidazo[1,5-a]pyrazin-7(8H)-yl)ethyl)-7-methoxy-[1,2,4]triazolo[1,5-c]quinazolin-5-amine] |
| 1.5 nM | COc1cccc2c1nc(N)n1nc(CCN3Cc4nc(C)sc4C3)nc21 [Ex-14, 7-methoxy-2-(2-(2-methyl-4H-pyrrolo[3,4-d]thiazol-5(6H)-yl)ethyl)-[1,2,4]triazolo[1,5-c]quinazolin-5-amine] |
| 2.2 nM | COc1cccc2c1nc(N)n1nc(CCN3CCc4c(sc(C5CC5)c4C#N)C3)nc21 [Ex-15, 6-(2-(5-amino-7-methoxy-[1,2,4]triazolo[1,5-c]quinazolin-2-yl)ethyl)-2-cyc1opropyl-4,5,6,7-tetrahydrothieno[2,3-c]pyridine-3-carbonitri1e] |
| 2.3 nM | COc1cccc2c1nc(N)n1nc(CCN3CCc4nc(C(F)(F)F)[nH]c4C3)nc21 [Ex-16, 7-methoxy-2-(2-(2-(trifluoromethyl)-6,7-dihydro-3H-imidazo[4,5-c]pyridin-5(4H)-yl)ethyl)-[1,2,4]triazolo[1,5-c]quinazolin-5-amine] |
| 9.6 nM | COc1cccc2c1nc(N)n1nc(CCN3CCn4c(nnc4C(F)(F)F)C3)nc21 [Ex-17, 7-methoxy-2-(2-(3-(trifluoromethyl)-5,6-dihydro[1,2,4]triazolo[4,3-a]pyrazin-7(8H)-yl)ethyl)-[1,2,4]triazolo[1,5-c]quinazolin-5-amine] |
| 13.3 nM | COc1cccc2c1nc(N)n1nc(CCN3Cc4cnc(C(F)(F)F)nc4C3)nc21 [Ex-18, 7-methoxy-2-(2-(2-(trifluoromethyl)-5H-pyrrolo[3,4-d]pyrimidin-6(7H)-yl)ethyl)-[1,2,4]triazolo[1,5-c]quinazolin-5-amine] |
| 4.4 nM and 6.6 nM | COc1cccc2c1nc(N)n1nc(CCN3Cc4cnc(C)nc4C3)nc21 [Ex-23, 7-methoxy-2-(2-(2-methyl-5H-pyrrolo[3,4-d]pyrimidin-6(7H)-yl)-ethyl)-[1,2,4]triazolo[1,5-c]quinazolin-5-amine] |
| 11.1 nM | COc1cccc2c1nc(N)n1nc(CCN3Cc4ccccc4C3)nc21 [Ex-24, 2-(2-(isoindolin-2-yl)ethyl)-7-methoxy-[1,2,4]triazolo[1,5-c]quinazolin-5-amine] |
| 0.9 nM | COc1cccc2c1nc(N)n1nc(CCN3CCc4sc(C)nc4C3)nc21 [Ex-25, 7-methoxy-2-(2-(2-methyl-6,7-dihydrothiazolo[4,5-c]pyridin-5(4H)-yl)ethyl)-[1,2,4]triazolo[1,5-c]quinazolin-5-amine] |
| 1.6 nM | COc1cccc2c1nc(N)n1nc(CCN3CCc4oc(C)nc4C3)nc21 [Ex-27, 7-methoxy-2-(2-(2-methyl-6,7-dihydrooxazolo[4,5-c]pyridin-5(4H)-yl)ethyl)-[1,2,4]triazolo[1,5-c]quinazolin-5-amine] |
| 2.2 nM | COc1cccc2c1nc(N)n1nc(CCN3CCc4nc(C)oc4C3)nc21 [Ex-28, 7-methoxy-2-(2-(2-methyl-6,7-dihydrooxazolo[5,4-c]pyridin-5(4H)-yl)ethyl)-[1,2,4]triazolo[1,5-c]quinazolin-5-amine] |

The next lines start with the compound.

| Compound | EC50 |
| --- | --- |
| COc1cccc2c1nc(N)n1nc(CCN3CCn4c(nnc4SC)C3)nc21 [Ex-1, 7-methoxy-2-(2-(3-(methylthio)-5,6-dihydro-[1,2,4]triazolo[4,3-a]pyrazin-7(8H)-yl)ethyl)-[1,2,4]triazolo[1,5-c]quinazolin-5-amine] | 4 nM |
| COc1cccc2c1nc(N)n1nc(CCN3CCn4c(Br)nnc4C3)nc21 [Ex-3, 2-(2-(3-bromo-5,6-dihydro-[1,2,4]triazolo[4,3-a]pyrazin-7(8H)-yl)ethyl)-7-methoxy-[1,2,4]triazolo[1,5-c]quinazolin-5-amine] | 3.4 nM |
| COc1cccc2c1nc(N)n1nc(CCN3Cc4ccc(Cl)nc4C3)nc21 [Ex-5, 2-(2-(2-chloro-5H-pyrrolo[3,4-b]pyridin-6(7H)-yl)ethyl)-7-methoxy-[1,2,4]triazolo[1,5-c]quinazolin-5-amine] | 4.7 nM |
| COc1cccc2c1nc(N)n1nc(CCN3CCc4c(cnn4C4CC4)C3)nc21 [Ex-7, 2-(2-(1-cyclopropyl-6,7-dihydro-1H-pyrazolo[4,3-c]pyridin-5(4H)-yl)ethyl)-7-methoxy-[1,2,4]triazolo[1,5-c]iquinazolin-5-amine] | 1.4 nM |
| COc1cccc2c1nc(N)n1nc(CCN3CCn4cc(C(=O)C5CC5)nc4C3)nc21 [Ex-10, (7-(2-(5-amino-7-methoxy[1,2,4]triazolo[1,5-c]quinazolin-2-yl)ethyl)-5,6,7,8-tetrahydroimidazo[1,2-a]pyrazin-2-yl)(cyclopropyl)methanone] | 1.2 nM |
| COc1cccc2c1nc(N)n1nc(CCN3CCn4nc(C(F)(F)F)nc4C3)nc21 [Ex-11] | 2.7 nM |
| COc1cccc2c1nc(N)n1nc(CCN3Cc4cncnc4C3)nc21 [Ex-19, 2-(2-(5H-pyrrolo[3,4-d]pyrimidin-6(7H)-yl)ethyl)-7-methoxy-[1,2,4]triazolo[1,5-c]quinazolin-5-amine] | 7.6 nM |
| COc1cccc2c1nc(N)n1nc(CCN3CCCCc4cccnc43)nc21 [Ex-20, 2-(2-(7,8-dihydro-5H-pyrido[2,3-b]azepin-9(6H)-yl)ethyl)-7-methoxy-[1,2,4]triazolo[1,5-c]quinazolin-5-amine] | 12.8 nM |
| COc1cccc2c1nc(N)n1nc(CCN3CCc4cccnc43)nc21 [Ex-21, 2-(2-(2,3-dihydro-1H-pyrrolo[2,3-b]pyridin-1-yl)ethyl)-7-methoxy-[1,2,4]triazolo[1,5-c]quinazolin-5-amine] | 31.2 nM |
| CCc1nnc2n1CCN(CCc1nc3c4cccc(OC)c4nc(N)n3n1)C2 [Ex-22, 2-(2-(3-ethyl-5,6-dihydro-[1,2,4]triazolo[4,3-a]pyrazin-7(8H)-yl)ethyl)-7-methoxy-[1,2,4]triazolo[1,5-c]quinazolin-5-amine] | 6.7 nM |
| COc1cccc2c1nc(N)n1nc(CCN3CCc4sc(C(F)(F)F)nc4C3)nc21 [Ex-26, 7-methoxy-2-(2-(2-(trifluoromethyl)-6,7-dihydrothiazolo[4,5-c]pyridin-5(4H)-yl)ethyl)-[1,2,4]triazolo[1,5-c]quinazolin-5-amine] | 0.5 nM |
| COc1cccc2c1nc(N)n1nc(CCN3CCc4nc(C)sc4C3)nc21 [Ex-29, 7-methoxy-2-(2-(2-methyl-6,7-dihydrothiazolo[5,4-c]pyridin-5(4H)-yl)ethyl)-[1,2,4]triazolo[1,5-c]quinazolin-5-amine] | 1.7 nM |
